Laboratory results: US7767659B2, “Synthesis of naturally occurring ecteinascidins and related compounds” (Pharma Mar, S.A., priority 2002, dated 2010)

How the values were obtained:
[1] = system: LoVo-Dox; experiment: Inhibition of cells growth by colorimetric assay (SRB); conditions: Homo sapiens, 48 h; for GI50: read-out: LOVO-DOX GI50; for CC50: read-out: LOVO-DOX LC50; for IC (TGI): read-out: LOVO-DOX TGI
How it was run: (§1)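 Colorimetric SRB read (490 nm) on triplicate wells after 48 h at 37 °C, 5% CO2. Dose range 10 to 10^−8 μg/ml; 5×10^3 cells/well pre-attached 18 h.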

[2] = system: HeLa; experiment: as above; conditions: Homo sapiens, HeLa, 48 h; for GI50: read-out: HELA GI50; for CC50: read-out: HELA LC50; for IC (TGI): read-out: HELA TGI
How it was run: as §1

[3] = system: DU-145; experiment: as above; conditions: Homo sapiens, DU-145, 48 h; for GI50: read-out: GI50 DU145; for CC50: read-out: LC50 DU145; for IC (TGI): read-out: TGI DU145
How it was run: as §1

[4] = system: IGROV-1; experiment: as above; conditions: Homo sapiens, IGROV-1, 48 h; for GI50: read-out: IGROV GI50; for CC50: read-out: IGROV LC50; for IC (TGI): read-out: IGROV TGI
How it was run: as §1

[5] = system: PANC-1; experiment: as above; conditions: Homo sapiens, PANC-1, 48 h; for GI50: read-out: PANC-1 GI50; for CC50: read-out: PANC-1 LC50; for IC (TGI): read-out: PANC-1 TGI
How it was run: as §1

[6] = system: LNCaP; experiment: as above; conditions: Homo sapiens, LNCaP, 48 h; for GI50: read-out: GI50 LNCAP; for CC50: read-out: LC50 LNCAP; for IC (TGI): read-out: TGI LNCAP
How it was run: as §1

[7] = system: IGROV-ET; experiment: as above; conditions: Homo sapiens, 48 h; for GI50: read-out: IGROV-ET GI50; for CC50: read-out: IGROV-ET LC50; for IC (TGI): read-out: IGROV-ET TGI
How it was run: as §1

[8] = system: SK-BR-3; experiment: as above; conditions: Homo sapiens, SK-BR-3, 48 h; for GI50: read-out: SK-BR3 GI50; for CC50: read-out: SK-BR3 LC50; for IC (TGI): read-out: SK-BR3 TGI
How it was run: as §1

[9] = system: HeLa-APL; experiment: as above; conditions: Homo sapiens, 48 h; for GI50: read-out: HELA-APL GI50; for CC50: read-out: HELA-APL LC50; for IC (TGI): read-out: HELA-APL TGI
How it was run: as §1

[10] = system: SK-MEL-28; experiment: as above; conditions: Homo sapiens, SK-MEL-28, 48 h; for GI50: read-out: GI50 MEL-28; for CC50: read-out: LC50 MEL-28; for IC (TGI): read-out: TGI MEL-28
How it was run: as §1

[11] = system: K-562; experiment: as above; conditions: Homo sapiens, K562, 48 h; for GI50: read-out: K562 GI50; for CC50: read-out: K562 LC50; for IC (TGI): read-out: K562 TGI
How it was run: as §1

[12] = system: HT-29; experiment: cells; conditions: Homo sapiens, HT-29, 48 h; for GI50: read-out: GI50 HT29; for CC50: read-out: LC50 HT29; for IC (TGI): read-out: TGI HT29
How it was run: as §1

[13] = system: A-549; experiment: cells; conditions: Homo sapiens, A549, 48 h; for GI50: read-out: GI50 A549; for CC50: read-out: LC50 A549; for IC (TGI): read-out: TGI A549
How it was run: as §1

[14] = system: LoVo; experiment: cells; conditions: Homo sapiens, LoVo, 48 h; for GI50: read-out: LOVO GI50; for CC50: read-out: LOVO LC50; for IC (TGI): read-out: LOVO TGI
How it was run: as §1

Question: Which results are given for `COc1c(C)cc2c(c1O)[C@H]1N[C@@H](C2)[C@H](O)N2C1[C@@H]1SCC(NC(C)=O)C(=O)OC[C@H]2c2c3c(c(C)c(OC(C)=O)c21)OCO3` (stereo partly drawn) [compound 36]?
Answer: GI50 [1]: 246 nM; CC50 [1]: 15600 nM; IC (TGI) [1]: 1090 nM; GI50 [2]: 1.46 nM; CC50 [2]: 9.82 nM; IC (TGI) [2]: 3.85 nM; GI50 [3]: 3.58 nM; CC50 [3]: 10400 nM; IC (TGI) [3]: 9.55 nM; GI50 [4]: 1.12 nM; CC50 [4]: 10.4 nM; IC (TGI) [4]: 3.79 nM; GI50 [5]: 2.82 nM; CC50 [5]: 2600 nM; IC (TGI) [5]: 9.72 nM; GI50 [6]: 0.46 nM; CC50 [6]: 5.06 nM; IC (TGI) [6]: 1.37 nM; GI50 [7]: 27.7 nM; CC50 [7]: 15600 nM; IC (TGI) [7]: 71.7 nM; GI50 [8]: 2.87 nM; CC50 [8]: 15.4 nM; IC (TGI) [8]: 6.65 nM; GI50 [9]: 1.85 nM; CC50 [9]: 10 nM; IC (TGI) [9]: 4.3 nM; GI50 [10]: 1.84 nM; CC50 [10]: 8.71 nM; IC (TGI) [10]: 4.01 nM; GI50 [11]: 0.246 nM; CC50 [11]: 5.11 nM; IC (TGI) [11]: 0.7 nM; GI50 [12]: 2.73 nM; CC50 [12]: 15600 nM; IC (TGI) [12]: 11.7 nM; GI50 [13]: 5.56 nM; CC50 [13]: 83.8 nM; IC (TGI) [13]: 22.9 nM; GI50 [14]: 2.12 nM; CC50 [14]: 15.6 nM; IC (TGI) [14]: 5.91 nM

Question: What does the source list for `CCCCCCCCCCCCCCCC(=O)NC1CS[C@@H]2c3c(OC(C)=O)c(C)c4c(c3[C@H](COC1=O)N1C2[C@@H]2N[C@@H](Cc3cc(C)c(OC)c(O)c32)[C@@H]1O)OCO4` (stereo partly drawn) [compound 38]?
Answer: GI50 [1]: 1540 nM; CC50 [1]: 6150 nM; IC (TGI) [1]: 3080 nM; GI50 [2]: 317 nM; CC50 [2]: 935 nM; IC (TGI) [2]: 545 nM; GI50 [3]: 286 nM; CC50 [3]: 1110 nM; IC (TGI) [3]: 564 nM; GI50 [4]: 381 nM; CC50 [4]: 4180 nM; IC (TGI) [4]: 786 nM; GI50 [5]: 616 nM; CC50 [5]: 4500 nM; IC (TGI) [5]: 1380 nM; GI50 [6]: 338 nM; CC50 [6]: 796 nM; IC (TGI) [6]: 518 nM; GI50 [7]: 365 nM; CC50 [7]: 1480 nM; IC (TGI) [7]: 675 nM; GI50 [8]: 194 nM; CC50 [8]: 1070 nM; IC (TGI) [8]: 457 nM; GI50 [9]: 295 nM; CC50 [9]: 1020 nM; IC (TGI) [9]: 549 nM; GI50 [10]: 272 nM; CC50 [10]: 860 nM; IC (TGI) [10]: 483 nM; GI50 [11]: 193 nM; CC50 [11]: 1540 nM; IC (TGI) [11]: 510 nM; GI50 [12]: 653 nM; CC50 [12]: 4730 nM; IC (TGI) [12]: 1670 nM; GI50 [13]: 473 nM; CC50 [13]: 4710 nM; IC (TGI) [13]: 1420 nM; GI50 [14]: 358 nM; CC50 [14]: 2510 nM; IC (TGI) [14]: 793 nM
